Assay results taken from patent US10364222B2, “Cyclic amine derivative and medical use thereof” (Toray Industries, Inc., priority 2016, dated 2019).

Assays:
[1] = test system: IL-17 production in mouse splenocytes; experiment: Suppressive effect on IL-17 production by IL-23 stimulation in mouse splenocytes; assay type: cell-based; details: Splenocyte, 72 h, at 5 μmol/L of the test compound, 10 ng/mL human IL-23, 3 days, read-out: IL-17 production inhibition rate (%)
Experimental: Using mouse splenocytes, the suppressive effect of the cyclic amine derivative (I) or a pharmacologically acceptable salt thereof on IL-17 production by IL-23 stimulation was evaluated by a partially modified method mentioned in The Journal of Biological Chemistry, 2003, Vol. 278, No. 3, p. 1910-1914.
A single cell suspension was prepared from the spleen of C57BL/6J mice (male, 7 to 23 weeks old) (Charles River Laboratories Japan, Inc.) and splenocytes were prepared using Histopaque-1083 (Sigma-Aldrich Japan). The culture medium was used by adding 10% FBS (Gibco), 50 U/mL of penicillin 50 μg/mL of streptomycin (Gibco), 50 μmol/L of 2-mercaptoethanol (Gibco), and 100 U/mL of human IL-2 (Cell Science & Technology Institute, Inc.) to RPMI1640 medium (Gibco). The test compound was dissolved in DMSO and then diluted with the culture medium to have a final concentration of DMSO of 0.1% before use. Splenocytes (3×10^5 cells/well) prepared in the culture medium were seeded in wells of a 96-well flat-bottom plate (Corning Incorporated), the test compound and 10 ng/mL of human IL-23 (R & D systems, Inc.) were added thereto, and the cells were cultured at 37° C. under 5% CO2 for 3 days. A well without addition of human IL-23 and without addition of the test compound and a well with addition of human IL-23 and without addition of the test compound were prepared. After completion of the culture, the culture supernatant was collected and the IL-17 production amount in the supernatant was determined by ELISA method (R & D systems, Inc.).
The IL-17 production inhibition rate (%) was calculated from Formula 2. IL-17 production inhibition rate(%)=(1−((IL-17 production amount with addition of IL-23 and with addition of the test compound)−(IL-17 production amount without addition of IL-23 and without addition of the test compound))/((IL-17 production amount with addition of IL-23 and without addition of the test compound)−(IL-17 production amount without addition of IL-23 and without addition of the test compound)))×100 Formula 2

[2] = target: T1, ligand-binding domain of RORγ (RORγ-LBD) (Homo sapiens, UniProt P51449); experiment: Inhibitory effect on RORγ-coactivator binding (LanthaScreen TR-FRET RORγ Coactivator Assay); details: at 33 μmol/L of the test compound; read-out: RORγ-coactivator binding inhibition rate (%)
T1 construct: purchased Invitrogen
T1 sequence (P51449 269-508 limits assumed): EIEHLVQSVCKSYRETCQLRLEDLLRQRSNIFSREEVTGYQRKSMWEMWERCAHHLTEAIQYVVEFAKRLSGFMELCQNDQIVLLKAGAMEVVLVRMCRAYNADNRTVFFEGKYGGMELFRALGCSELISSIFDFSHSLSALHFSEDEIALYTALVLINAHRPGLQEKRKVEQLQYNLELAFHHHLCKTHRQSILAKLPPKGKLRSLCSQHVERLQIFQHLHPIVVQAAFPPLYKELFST
Experimental: The inhibitory effect of the cyclic amine derivative (I) or a pharmacologically acceptable salt thereof on the binding between a ligand-binding domain of RORγ (hereinafter referred to as RORγ-LBD) and a coactivator was evaluated using Invitrogen's LanthaScreen™TR-FRET Retinoid-Related Orphan Receptor (ROR) gamma Coactivator Assay kit utilizing time-resolved fluorescence energy transfer (TR-FRET).
The test compound was dissolved in DMSO and diluted with TR-FRET Coregulator Buffer D (Invitrogen) containing 5 mmol/L of DTT to have a final DMSO concentration of 1% before use. To each well of a 384-well black plate (Corning Inc.), 4 nmol/L of GST-fused RORγ-LBD (Invitrogen) diluted with the buffer mentioned above and the test compound were added. A well without addition of the test compound and without addition of GST-fused RORγ-LBD (background) and a well without addition of the test compound and with addition of GST-fused RORγ-LBD (control) were prepared. Next, 150 nmol/L of fluorescein-labeled TRAP220/DRIP-2 (Invitrogen) diluted with the buffer mentioned above and 32 nmol/L of terbium-labeled anti-GST antibody (Invitrogen) were added to each well. After incubating the plate at room temperature for 16 to 24 hours, the fluorescence at 495 nm and 520 nm when excited at 320 nm was measured for each well and the ratio (fluorescence value at 520 nm/fluorescence value at 495 nm) was calculated.
The fold change with addition of the test compound (ratio with addition of the test compound/ratio of the background), the fold change of the control (ratio of the control/ratio of the background), and the fold change of the background (ratio of the background/ratio of the background) were calculated, and then the inhibition rate of binding between RORγ-LBD and a coactivator (hereinafter referred to as RORγ-coactivator binding inhibition rate) (%) was calculated from Formula 1: RORγ-coactivator binding inhibition rate(%)=(1−((Fold change with addition of the test compound)−(Fold change of the background))/((Fold change of the control)−(Fold change of the background)))×100 Formula 1

SMILES	inhibition at 5 µM [1] [%]	inhibition at 33 µM [2] [%]
O=C(Nc1ccc(-c2ccccc2OC(F)(F)F)c(Cl)c1)[C@H]1CCCCN1C(=O)Cn1ccnn1 [Example 64, (R)-1-(2-(1H-1,2,3-triazol-1-yl)acetyl)-N-(2-chloro-2′-(trifluoromethoxy)-[1,1′-biphenyl]-4-yl)piperidine-2-carboxamide]	99.4	97.3
O=C(Nc1ccc(-c2ccccc2OC(F)(F)F)c(Cl)c1)[C@H]1CCCCN1C(=O)Cn1cccn1 [Example 61, (R)-1-(2-(1H-pyrazol-1-yl)acetyl)-N-(2-chloro-2′-(trifluoromethoxy)-[1,1′-biphenyl]-4-yl)piperidine-2-carboxamide]	98.8	102
CC(=O)NCC(=O)N1CCCCC1C(=O)Nc1ccc(-c2ccccc2OC(F)(F)F)c(Cl)c1 (stereo not shown) [Example 9, 1-(2-acetamideacetyl)-N-(2-chloro-2′-(trifluoromethoxy)-[1,1′-biphenyl]-4-yl)piperidine-2-carboxamide]	94.6	–
COC(=O)N1CCCCC1C(=O)Nc1ccc(-c2ccccc2OC(F)(F)F)c(Cl)c1 (stereo not shown) [Example 19, methyl 2-((2-chloro-2′-(trifluoromethoxy)-[1,1′-biphenyl]-4-yl)carbamoyl)piperidine-1-carboxylate]	99.8	93.4
CC(=O)N1CC[C@@H](O)C[C@@H]1C(=O)Nc1ccc(-c2ccccc2OC(F)(F)F)c(Cl)c1 [Example 27, (2R,4R)-1-acetyl-N-(2-chloro-2′-(trifluoromethoxy)-[1,1′-biphenyl]-4-yl)-4-hydroxypiperidine-2-carboxamide]	97.4	–
NCCC(=O)N1CCCCC1C(=O)Nc1ccc(-c2ccccc2OC(F)(F)F)c(Cl)c1 (stereo not shown) [Example 30, 1-(3-aminopropanoyl)-N-(2-chloro-2′-(trifluoromethoxy)-[1,1′-biphenyl]-4-yl)piperidine-2-carboxamide]	99.8	–
CNCC(=O)N1CCCCC1C(=O)Nc1ccc(-c2ccccc2OC(F)(F)F)c(Cl)c1 (stereo not shown) [Example 11, N-(2-chloro-2′-(trifluoromethoxy)-[1,1′-biphenyl]-4-yl)-1-(2-(methylamino)acetyl)piperidine-2-carboxamide]	94.1	–
CC(=O)N1CC[C@H](O)C[C@@H]1C(=O)Nc1ccc(-c2ccccc2OC(F)(F)F)c(Cl)c1 [Example 24, (2R,4S)-1-acetyl-N-(2-chloro-2′-(trifluoromethoxy)-[1,1′-biphenyl]-4-yl)-4-hydroxypiperidine-2-carboxamide]	95.7	–
CC(=O)N(C)CCC(=O)N1CCCCC1C(=O)Nc1ccc(-c2ccccc2OC(F)(F)F)c(Cl)c1 (stereo not shown) [Example 35, N-(2-chloro-2′-(trifluoromethoxy)-[1,1′-biphenyl]-4-yl)-1-(3-(N-methylacetamide)propanoyl)piperidine-2-carboxamide]	94.9	–
NCCC(=O)N1CCCC[C@@H]1C(=O)Nc1ccc(-c2ccccc2OC(F)(F)F)c(Cl)c1 [Example 38, (R)-1-(3-aminopropanoyl)-N-(2-chloro-2′-(trifluoromethoxy)-[1,1′-biphenyl]-4-yl)piperidine-2-carboxamide]	99	–
CNCCC(=O)N1CCCCC1C(=O)Nc1ccc(-c2ccccc2OC(F)(F)F)c(Cl)c1 (stereo not shown) [Example 34, N-(2-chloro-2′-(trifluoromethoxy)-[1,1′-biphenyl]-4-yl)-1-(3-(methylamino)propanoyl)piperidine-2-carboxamide]	100	–
CC(=O)N(C)CC(=O)N1CCCCC1C(=O)Nc1ccc(-c2ccccc2OC(F)(F)F)c(Cl)c1 (stereo not shown) [Example 12, N-(2-chloro-2′-(trifluoromethoxy)-[1,1′-biphenyl]-4-yl)-1-(2-(N-methylacetamide)acetyl)piperidine-2-carboxamide]	96.1	–
CS(=O)(=O)N1CC[C@H](O)C[C@@H]1C(=O)Nc1ccc(-c2ccccc2OC(F)(F)F)c(Cl)c1 [Example 26, (2R,4S)—N-(2-chloro-2′-(trifluoromethoxy)-[1,1′-biphenyl]-4-yl)-4-hydroxy-1-(methylsulfonyl)piperidine-2-carboxamide]	96.4	–
CN(C)CCC(=O)N1CCCC[C@@H]1C(=O)Nc1ccc(-c2ccccc2OC(F)(F)F)c(Cl)c1 [Example 68, (R)-N-(2-chloro-2′-(trifluoromethoxy)-[1,1′-biphenyl]-4-yl)-1-(3-(dimethylamino)propanoyl)piperidine-2-carboxamide]	99.4	–
O=C(Nc1ccc(-c2ccccc2OC(F)(F)F)c(Cl)c1)C1CCCCN1C(=O)C(F)F (stereo not shown) [Example 7, N-(2-chloro-2′-(trifluoromethoxy)-[1,1′-biphenyl]-4-yl)-1-(2,2-difluoroacetyl)piperidine-2-carboxamide]	99	–
CNCCC(=O)N1CCCC[C@@H]1C(=O)Nc1ccc(-c2ccccc2OC(F)(F)F)c(Cl)c1 [Example 41, (R)-N-(2-chloro-2′-(trifluoromethoxy)-[1,1′-biphenyl]-4-yl)-1-(3-(methylamino)propanoyl)piperidine-2-carboxamide]	99.1	–
CC(=O)NCCC(=O)N1CCCCC1C(=O)Nc1ccc(-c2ccccc2OC(F)(F)F)c(Cl)c1 (stereo not shown) [Example 31, 1-(3-acetamidepropanoyl)-N-(2-chloro-2′-(trifluoromethoxy)-[1,1′-biphenyl]-4-yl)piperidine-2-carboxamide]	99.1	–
O=C(O)CCCC(=O)N1CCCC[C@@H]1C(=O)Nc1ccc(-c2ccccc2OC(F)(F)F)c(Cl)c1 [Example 70, (R)-5-(2-((2-chloro-2′-(trifluoromethoxy)-[1,1′-biphenyl]-4-yl)carbamoyl)piperidin-1-yl)-5-oxopentanoic acid]	99.7	–
O=C(Nc1ccc(-c2ccccc2OC(F)(F)F)c(Cl)c1)[C@H]1CCCCN1C(=O)Cn1cnnc1 [Example 62, (R)-1-(2-(4H-1,2,4-triazol-4-yl)acetyl)-N-(2-chloro-2′-(trifluoromethoxy)-[1,1′-biphenyl]-4-yl)piperidine-2-carboxamide]	100	–
O=C(Nc1ccc(-c2ccccc2OC(F)(F)F)c(Cl)c1)[C@H]1CCCCN1C(=O)Cn1cncn1 [Example 63, (R)-1-(2-(1H-1,2,4-triazol-1-yl)acetyl)-N-(2-chloro-2′-(trifluoromethoxy)-[1,1′-biphenyl]-4-yl)piperidine-2-carboxamide]	99.9	–
CN(C)CC(=O)N1CCCCC1C(=O)Nc1ccc(-c2ccccc2OC(F)(F)F)c(Cl)c1 (stereo not shown) [Example 6, N-(2-chloro-2′-(trifluoromethoxy)-[1,1′-biphenyl]-4-yl)-1-(2-(dimethylamino)acetyl)piperidine-2-carboxamide]	91.6	–
CN(C)CCC(=O)N1CCCCC1C(=O)Nc1ccc(-c2ccccc2OC(F)(F)F)c(Cl)c1 (stereo not shown) [Example 33, N-(2-chloro-2′-(trifluoromethoxy)-[1,1′-biphenyl]-4-yl)-1-(3-(dimethylamino)propanoyl)piperidine-2-carboxamide]	98.3	–
